Patent US20100041089A1, “IMPROVED METHOD FOR DETECTING CHEMICAL […]” (priority 2006, published 2010)

Tested on: yeast genes (expressed mRNA)
Experiment: DNA chip measurement of expressed mRNA of yeast genes after culture with a toxic chemical substance
Assay type: cell-based, Saccharomyces cerevisiae S288C
Settings: for level of expressed mRNA in the presence of chemical substance / level in the absence of chemical substance: cultured two hours with the chemical substance; for The level of expressed mRNA in the presence of chemical substance/The level of expressed mRNA in the absence of chemical substance: cultured two hours with substance
How it was run: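 S. cerevisiae S288C grown at 25 °C in YPD, exposed in log phase for 2 h to a toxicant at growth-inhibiting, non-lethal concentration. Cy3/Cy5-labelled cDNA from poly(A) mRNA hybridized to whole-genome chip at 65 °C >12 h. Ratio to untreated control, ≥2 significant.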

Substance: Manganese ethylenebis(dithiocarbamate) [(8)]
- The level of expressed mRNA in the presence of chemical substance/The level of expressed mRNA in the absence of chemical substance, yeast gene YBR036C (gene YBR036C, Metabolism protein genes, DNA chip fluorescence ratio): 0.7
- The level of expressed mRNA in the presence of chemical substance/The level of expressed mRNA in the absence of chemical substance, yeast gene YBR298C (gene YBR298C, Metabolism protein genes, DNA chip fluorescence ratio): 0.5
- The level of expressed mRNA in the presence of chemical substance/The level of expressed mRNA in the absence of chemical substance, yeast gene YDL067C (gene YDL067C (mitochondria-located protein gene), yeast cultured two hours with chemical substance, DNA chip fluorescence ratio to control): 1.1
- The level of expressed mRNA in the presence of chemical substance/The level of expressed mRNA in the absence of chemical substance, yeast gene YDL078C (gene YDL078C, Metabolism protein genes, DNA chip fluorescence ratio): 1.0
- The level of expressed mRNA in the presence of chemical substance/The level of expressed mRNA in the absence of chemical substance, yeast gene YDL215C (gene YDL215C, Metabolism protein genes, DNA chip fluorescence ratio): 1.1
- The level of expressed mRNA in the presence of chemical substance/The level of expressed mRNA in the absence of chemical substance, yeast gene YDR079W (gene YDR079W (mitochondria-located protein gene), yeast cultured two hours with chemical substance, DNA chip fluorescence ratio to control): 2.6
- The level of expressed mRNA in the presence of chemical substance/The level of expressed mRNA in the absence of chemical substance, yeast gene YDR297W (gene YDR297W, Metabolism protein genes, DNA chip fluorescence ratio): 1.5
- The level of expressed mRNA in the presence of chemical substance/The level of expressed mRNA in the absence of chemical substance, yeast gene YDR387C (gene YDR387C, Metabolism protein genes, DNA chip fluorescence ratio): 0.7
- The level of expressed mRNA in the presence of chemical substance/The level of expressed mRNA in the absence of chemical substance, yeast gene YGL035C (gene YGL035C, Metabolism protein genes, DNA chip fluorescence ratio): 1.3
- The level of expressed mRNA in the presence of chemical substance/The level of expressed mRNA in the absence of chemical substance, yeast gene YGR062C (gene YGR062C (mitochondria-located protein gene), yeast cultured two hours with chemical substance, DNA chip fluorescence ratio to control): 0.8
- The level of expressed mRNA in the presence of chemical substance/The level of expressed mRNA in the absence of chemical substance, yeast gene YGR287C (gene YGR287C, Metabolism protein genes, DNA chip fluorescence ratio): 1.3
- The level of expressed mRNA in the presence of chemical substance/The level of expressed mRNA in the absence of chemical substance, yeast gene YJL070C (gene YJL070C, Metabolism protein genes, DNA chip fluorescence ratio): 1.1
- The level of expressed mRNA in the presence of chemical substance/The level of expressed mRNA in the absence of chemical substance, yeast gene YJL096W (gene YJL096W (mitochondria-located protein gene), yeast cultured two hours with chemical substance, DNA chip fluorescence ratio to control): 1.3
- The level of expressed mRNA in the presence of chemical substance/The level of expressed mRNA in the absence of chemical substance, yeast gene YJL180C (gene YJL180C (mitochondria-located protein gene), yeast cultured two hours with chemical substance, DNA chip fluorescence ratio to control): 1.0
- The level of expressed mRNA in the presence of chemical substance/The level of expressed mRNA in the absence of chemical substance, yeast gene YKR009C (gene YKR009C, Metabolism protein genes, DNA chip fluorescence ratio): 0.9
- The level of expressed mRNA in the presence of chemical substance/The level of expressed mRNA in the absence of chemical substance, yeast gene YLR295C (gene YLR295C (mitochondria-located protein gene), yeast cultured two hours with chemical substance, DNA chip fluorescence ratio to control): 1.2
- The level of expressed mRNA in the presence of chemical substance/The level of expressed mRNA in the absence of chemical substance, yeast gene YLR351C (gene YLR351C, Metabolism protein genes, DNA chip fluorescence ratio): 1.2
- The level of expressed mRNA in the presence of chemical substance/The level of expressed mRNA in the absence of chemical substance, yeast gene YLR375W (gene YLR375W, Metabolism protein genes, DNA chip fluorescence ratio): 1.0
- The level of expressed mRNA in the presence of chemical substance/The level of expressed mRNA in the absence of chemical substance, yeast gene YMR023C (gene YMR023C (mitochondria-located protein gene), yeast cultured two hours with chemical substance, DNA chip fluorescence ratio to control): 1.4
- The level of expressed mRNA in the presence of chemical substance/The level of expressed mRNA in the absence of chemical substance, yeast gene YMR267W (gene YMR267W (mitochondria-located protein gene), yeast cultured two hours with chemical substance, DNA chip fluorescence ratio to control): 1.5
- The level of expressed mRNA in the presence of chemical substance/The level of expressed mRNA in the absence of chemical substance, yeast gene YMR267W (gene YMR267W, Metabolism protein genes, DNA chip fluorescence ratio): 1.5
- The level of expressed mRNA in the presence of chemical substance/The level of expressed mRNA in the absence of chemical substance, yeast gene YMR278W (gene YMR278W, Metabolism protein genes, DNA chip fluorescence ratio): 1.1
- The level of expressed mRNA in the presence of chemical substance/The level of expressed mRNA in the absence of chemical substance, yeast gene YMR293C (gene YMR293C, Metabolism protein genes, DNA chip fluorescence ratio): 1.0
- The level of expressed mRNA in the presence of chemical substance/The level of expressed mRNA in the absence of chemical substance, yeast gene YNL073W (gene YNL073W (mitochondria-located protein gene), yeast cultured two hours with chemical substance, DNA chip fluorescence ratio to control): 1.0
- The level of expressed mRNA in the presence of chemical substance/The level of expressed mRNA in the absence of chemical substance, yeast gene YNR072W (gene YNR072W, Metabolism protein genes, DNA chip fluorescence ratio): 0.9
- The level of expressed mRNA in the presence of chemical substance/The level of expressed mRNA in the absence of chemical substance, yeast gene YOL096C (gene YOL096C, Metabolism protein genes, DNA chip fluorescence ratio): 1.0
- The level of expressed mRNA in the presence of chemical substance/The level of expressed mRNA in the absence of chemical substance, yeast gene YOR180C (gene YOR180C, Metabolism protein genes, DNA chip fluorescence ratio): 0.9
- The level of expressed mRNA in the presence of chemical substance/The level of expressed mRNA in the absence of chemical substance, yeast gene YOR316C (gene YOR316C (mitochondria-located protein gene), yeast cultured two hours with chemical substance, DNA chip fluorescence ratio to control): 0.8
- The level of expressed mRNA in the presence of chemical substance/The level of expressed mRNA in the absence of chemical substance, yeast gene YOR363C (gene YOR363C, Metabolism protein genes, DNA chip fluorescence ratio): 1.1
- The level of expressed mRNA in the presence of chemical substance/The level of expressed mRNA in the absence of chemical substance, yeast gene YPL040C (gene YPL040C (mitochondria-located protein gene), yeast cultured two hours with chemical substance, DNA chip fluorescence ratio to control): 1.1
- The level of expressed mRNA in the presence of chemical substance/The level of expressed mRNA in the absence of chemical substance, yeast gene YPL134C (gene YPL134C (mitochondria-located protein gene), yeast cultured two hours with chemical substance, DNA chip fluorescence ratio to control): 1.3
- The level of expressed mRNA in the presence of chemical substance/The level of expressed mRNA in the absence of chemical substance, yeast gene YPR184W (gene YPR184W, Metabolism protein genes, DNA chip fluorescence ratio): 0.7
- level of expressed mRNA in the presence of chemical substance / level in the absence of chemical substance (yeast gene YAL018C): 1.6
- The level of expressed mRNA in the presence of chemical substance/The level of expressed mRNA in the absence of chemical substance (yeast gene YAL053W): 0.8
- level of expressed mRNA in the presence of chemical substance / level in the absence of chemical substance (yeast gene YAR047C): 0.8
- level of expressed mRNA in the presence of chemical substance / level in the absence of chemical substance (yeast gene YAR064W): 1.1
- level of expressed mRNA in the presence of chemical substance / level in the absence of chemical substance (yeast gene YBL044W): 0.7
- The level of expressed mRNA in the presence of chemical substance/The level of expressed mRNA in the absence of chemical substance (yeast gene YBL048W): 1.2
- The level of expressed mRNA in the presence of chemical substance/The level of expressed mRNA in the absence of chemical substance (yeast gene YBL107C): 1.9
- level of expressed mRNA in the presence of chemical substance / level in the absence of chemical substance (yeast gene YBR012C): 1.1
- level of expressed mRNA in the presence of chemical substance / level in the absence of chemical substance (yeast gene YBR066C): 1.2
- level of expressed mRNA in the presence of chemical substance / level in the absence of chemical substance (yeast gene YBR124W): 1.2
- level of expressed mRNA in the presence of chemical substance / level in the absence of chemical substance (yeast gene YBR162C): 0.8
- level of expressed mRNA in the presence of chemical substance / level in the absence of chemical substance (yeast gene YBR287W): 1.0
- level of expressed mRNA in the presence of chemical substance / level in the absence of chemical substance (yeast gene YCL042W): 0.6
- level of expressed mRNA in the presence of chemical substance / level in the absence of chemical substance (yeast gene YCL056C): 1.0
- level of expressed mRNA in the presence of chemical substance / level in the absence of chemical substance (yeast gene YCR007C): 1.0
- level of expressed mRNA in the presence of chemical substance / level in the absence of chemical substance (yeast gene YDL046W): 0.7
- The level of expressed mRNA in the presence of chemical substance/The level of expressed mRNA in the absence of chemical substance (yeast gene YDL072C): 0.8
- The level of expressed mRNA in the presence of chemical substance/The level of expressed mRNA in the absence of chemical substance (yeast gene YDL204W): 1.1
- The level of expressed mRNA in the presence of chemical substance/The level of expressed mRNA in the absence of chemical substance (yeast gene YDL222C): 0.7
- level of expressed mRNA in the presence of chemical substance / level in the absence of chemical substance (yeast gene YDR090C): 0.8
